Measurements from US11358931B2, “Selective androgen receptor modulators (SARMs) and uses thereof” (priority 2007, dated 2022).
Like-named read-outs stand apart in the source and are kept apart here.

What was measured:
[1] = Toxicokinetics in Sprague Dawley rats (14-day oral study); format: in vivo, rat
Method: A Sprague Dawley Rat model was used to study oral toxicity and toxicokinetics. Animals were assigned to groups by a stratified randomization scheme designed to achieve similar group mean body weights and the groups were randomly assigned to a dosing to provide control of bias.
All animals were dosed via oral gavage once daily for 14 days. The animals were evaluated for changes in clinical signs (mortality/morbidity observations, twice daily), cage side observations (general appearance and behavior), food consumption (quantitatively measured by weighing), body weights, clinical pathology indices including serum chemistry, hematology, coagulation and urinalysis, and other parameters. Blood samples were collected for toxicokinetics analysis from Groups 6-10 at various time points on Days 1 and 14 (Group 6 4 hours post dose; Groups 7-10 at 1, 4 and 12 hours or 2, 8 and 24 hours). The animals were fasted for at least 8 hours prior to blood collections for serum chemistry and urine collection. Serum chemistry parameters tested included alanine aminotransferase, total protein, aspartate aminotransferase, albumin, alkaline phosphatase, globulin, gamma-glutamyl-transferase, albumin/globulin ratio, lactate dehydrogenase, glucose, total bilirubin, cholesterol, urea nitrogen, triglycerides, creatinine, sodium, calcium, potassium, phosphorus and chloride. Hematology parameters analyzed included red blood cell count, reticulocyte count, hemoglobin concentration, red blood cell distribution width, mean corpuscular volume, mean platelet volume, mean corpuscular hemoglobin concentration, white blood cell count and differentials and mean corpuscular hemoglobin. Urinalysis parameters included color/character, ketones, specific gravity, bilirubin, pH, occult blood, protein, glucose and microscopics. Main study animals were euthanized on Day 15. At termination, a full necropsy was conducted and all tissues were collected, preserved, processes and examined microscopically from Groups 1 and 5, and target organs (liver and kidney) from Groups 2-4, by a veterinary pathologist certified by the American College of Veterinary Pathologists.

[2] = Pharmacokinetics in orchidectomized male rats (plasma, Day 14); format: in vivo; conditions: rat, ORX male rats; for AUC: male, po; for Cmax / Tmax: PO
From the text: In this assay, two-month old rats were acclimated in a vivarium for one week. After this acclimation period, rats were surgically orchidectomized under isoflurane anesthesia and left untreated for 14 days. After 14 days, animals were sorted into groups such that no statistically significant differences in mean body weights were observed. Rats began receiving treatment 14 days after the day of surgery. Sham-operated and orchidectomized rats, treated with vehicle, served as controls. The different test groups were treated with various doses of Compound 102 (0.03 to 100 mg/kg/day per os (by mouth)). Dosages included 0.03, 0.1, 0.3, 1, 3, 10, 30 and 100 mg/kg/day. Ostarine, a non-steroidal androgenic drug (Evans et al., J Clin Oncology 25: 9119 (2007)) was dosed at dosages similar to other test groups as a comparison. After the 14th dose, venous blood was collected at 0, 1, 2, 4 and 6 hours after dosing. The blood samples were collected in EDTA-containing tubes (Becton Dickinson, Franklin Lakes, N.J.). Approximately 24 hours after the last dose, animals were euthanized and seminal vesicle weights, ventral prostate weights, levator ani weights, preputial gland weights and blood samples were collected on necropsy.
The determination of plasma concentration was done by an LC-MS/MS method. The standard solution of each drug was spiked in blank rat plasma, calibration standards were constructed from 0.0001 μg/mL to 10 μg/mL; and 50 μL of each calibration standard was extracted with 250 μL of acetonitrile containing 10 ng/mL of internal standard in a 96-well plate. Also, 50 μL of plasma sample was extracted with 250 μL of acetonitrile containing internal standard in a 96-well plate.
Peak pharmacokinetic (PK) parameters were calculated and rounded to three decimal places.

hAR = hAR (Homo sapiens, UniProt P10275); test: cell-based
Chain of hAR (P10275 whole entry): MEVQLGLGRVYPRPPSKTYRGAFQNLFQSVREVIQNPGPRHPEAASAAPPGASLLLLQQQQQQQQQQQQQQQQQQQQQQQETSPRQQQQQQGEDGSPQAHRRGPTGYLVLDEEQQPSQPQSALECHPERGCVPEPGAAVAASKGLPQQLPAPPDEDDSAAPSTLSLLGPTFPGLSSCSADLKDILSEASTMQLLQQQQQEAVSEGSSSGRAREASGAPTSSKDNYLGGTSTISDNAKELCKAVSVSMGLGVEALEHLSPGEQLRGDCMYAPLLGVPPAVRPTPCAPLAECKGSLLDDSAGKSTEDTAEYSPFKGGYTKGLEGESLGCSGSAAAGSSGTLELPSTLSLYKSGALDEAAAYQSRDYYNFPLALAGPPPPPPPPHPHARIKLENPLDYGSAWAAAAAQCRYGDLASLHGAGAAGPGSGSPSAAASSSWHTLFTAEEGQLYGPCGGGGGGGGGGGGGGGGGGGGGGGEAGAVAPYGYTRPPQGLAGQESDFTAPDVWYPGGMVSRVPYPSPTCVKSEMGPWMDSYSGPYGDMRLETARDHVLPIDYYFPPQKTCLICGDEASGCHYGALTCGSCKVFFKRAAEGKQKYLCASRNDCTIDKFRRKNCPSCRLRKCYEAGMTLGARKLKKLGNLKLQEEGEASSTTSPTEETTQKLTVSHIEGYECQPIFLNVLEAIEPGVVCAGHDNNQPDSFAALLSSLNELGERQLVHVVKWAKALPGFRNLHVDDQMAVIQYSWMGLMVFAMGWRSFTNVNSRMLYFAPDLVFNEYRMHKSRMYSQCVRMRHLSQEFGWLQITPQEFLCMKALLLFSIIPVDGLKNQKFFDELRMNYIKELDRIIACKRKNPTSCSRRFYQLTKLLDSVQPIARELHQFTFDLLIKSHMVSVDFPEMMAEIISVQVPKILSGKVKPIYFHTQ

Q: For `N#Cc1ccc(N2CCC[C@@H]2[C@@H](O)C(F)(F)F)cc1C(F)(F)F` [Compound 102, R,R-4-(2-(1-Hydroxyl-2,2,2-trifluoroethyl)-pyrrolidinyl)-2-trifluoromethyl-benzonitrile], which “sex difference of systemic exposure” value ([1]; Day 1) is on record?
A: The value was “higher systemic exposure in females across all dose levels”.

Q: What about the “systemic exposure at 700 mg/kg/day” value ([1]; Day 1, 700 mg/kg/day) of the same molecule?
A: Its value is “not increased, indicating that absorption was saturated”.

Q: What about the “systemic exposure versus dose” value ([1]; Day 1, male and female rats) of the same molecule?
A: Its value is “increased with increasing dose up to 300 mg/kg/day”.

Q: And the “effect of repeat administration on systemic exposure” value ([1]; Day 14 vs Day 1, more pronounced in high dose groups)?
A: Its value is “decreased systemic exposure”.

Q: And the AUC ([2]; 0.01 mg/kg, Day 14, 0.01 mg/kg, 0 hr conc. substituted for 24 hr, read-out: AUC24)?
A: Its AUC is 15 ng·h/mL.

Q: And the AUC ([2]; 0.01 mg/kg, Day 14, 0.01 mg/kg, read-out: AUC6)?
A: The AUC was 4 ng·h/mL.

Q: And the AUC ([2]; 0.03 mg/kg, Day 14, 0.03 mg/kg, 0 hr conc. substituted for 24 hr, read-out: AUC24)?
A: Its AUC is 5 ng·h/mL.

Q: What about the AUC ([2]; 0.03 mg/kg, Day 14, 0.03 mg/kg, read-out: AUC6) of the same molecule?
A: Its AUC is 2 ng·h/mL.

Q: And the AUC ([2]; 0.3 mg/kg, Day 14, 0.3 mg/kg, 0 hr conc. substituted for 24 hr, read-out: AUC24)?
A: Its AUC is 42 ng·h/mL.

Q: And the AUC ([2]; 0.3 mg/kg, Day 14, 0.3 mg/kg, read-out: AUC6)?
A: The AUC was 18 ng·h/mL.

Q: And the AUC ([2]; 1 mg/kg, Day 14, 1 mg/kg, 0 hr conc. substituted for 24 hr, read-out: AUC24)?
A: Its AUC is 123 ng·h/mL.

Q: And the AUC ([2]; 1 mg/kg, Day 14, 1 mg/kg, read-out: AUC6)?
A: Its AUC is 63 ng·h/mL.

Q: What about the AUC ([2]; 3 mg/kg, Day 14, 3 mg/kg, 0 hr conc. substituted for 24 hr, read-out: AUC24) of the same molecule?
A: Its AUC is 234 ng·h/mL.

Q: What about the AUC ([2]; 3 mg/kg, Day 14, 3 mg/kg, read-out: AUC6) of the same molecule?
A: The AUC was 113 ng·h/mL.

Q: What about the AUC ([2]; 10 mg/kg, Day 14, 10 mg/kg, 0 hr conc. substituted for 24 hr, read-out: AUC24) of the same molecule?
A: Its AUC is 764 ng·h/mL.

Q: And the AUC ([2]; 10 mg/kg, Day 14, 10 mg/kg, read-out: AUC6)?
A: The AUC was 370 ng·h/mL.

Q: And the AUC ([2]; 30 mg/kg, Day 14, 30 mg/kg, 0 hr conc. substituted for 24 hr, read-out: AUC24)?
A: Its AUC is 1880 ng·h/mL.

Q: And the AUC ([2]; 30 mg/kg, Day 14, 30 mg/kg, read-out: AUC6)?
A: Its AUC is 645 ng·h/mL.

Q: And the AUC ([2]; 100 mg/kg, Day 14, 100 mg/kg, 0 hr conc. substituted for 24 hr, read-out: AUC24)?
A: The AUC was 4050 ng·h/mL.

Q: And the AUC ([2]; 100 mg/kg, Day 14, 100 mg/kg, read-out: AUC6)?
A: Its AUC is 998 ng·h/mL.

Q: What about the Cmax ([2]; Day 14, 0.01 mg/kg) of the same molecule?
A: Its Cmax is 2 ng/mL.

Q: What about the Tmax ([2]; Day 14, 0.01 mg/kg) of the same molecule?
A: Its Tmax is 2.8 h.

Q: What about the Cmax ([2]; Day 14, 0.03 mg/kg) of the same molecule?
A: Its Cmax is 1 ng/mL.

Q: What about the Tmax ([2]; Day 14, 0.03 mg/kg) of the same molecule?
A: Its Tmax is 2 h.

Q: And the Cmax ([2]; Day 14, 0.3 mg/kg)?
A: Its Cmax is 12 ng/mL.

Q: And the Tmax ([2]; Day 14, 0.3 mg/kg)?
A: Its Tmax is 1.3 h.

Q: What about the Cmax ([2]; Day 14, 1 mg/kg) of the same molecule?
A: The Cmax was 18 ng/mL.

Q: And the Tmax ([2]; Day 14, 1 mg/kg)?
A: The Tmax was 2.5 h.

Q: And the Cmax ([2]; Day 14, 3 mg/kg)?
A: Its Cmax is 36 ng/mL.

Q: And the Tmax ([2]; Day 14, 3 mg/kg)?
A: The Tmax was 1.3 h.

Q: And the Cmax ([2]; Day 14, 10 mg/kg)?
A: Its Cmax is 111 ng/mL.

Q: What about the Tmax ([2]; Day 14, 10 mg/kg) of the same molecule?
A: The Tmax was 1.8 h.

Q: And the Cmax ([2]; Day 14, 30 mg/kg)?
A: Its Cmax is 205 ng/mL.

Q: What about the Tmax ([2]; Day 14, 30 mg/kg) of the same molecule?
A: The Tmax was 4.3 h.

Q: What about the Cmax ([2]; Day 14, 100 mg/kg) of the same molecule?
A: Its Cmax is 321 ng/mL.

Q: What about the Tmax ([2]; Day 14, 100 mg/kg) of the same molecule?
A: The Tmax was 3.5 h.

Q: What about the EC50 (hAR) of the same molecule?
A: Its EC50 is 3.1 nM.

Q: What about the Emax (hAR; MDA-MB-453, read-out: efficacy relative to dihydrotestosterone (DHT)) of the same molecule?
A: The Emax was 59%.
